# Test results from ChEMBL document CHEMBL1135665, “Synthesis and biological evaluation of 14-alkoxymorphinans. 17. Highly delta opioid receptor selective 14-alkoxy-substituted indolo- and benzofuromorphinans” (J Med Chem, 2002).
# How the values were obtained:
# [1] = molecular target: T1, Kappa-type opioid receptor (Cavia porcellus, UniProt P41144); experiment: Binding affinity at kappa opioid receptor 1 in guinea pig brain by [3H]U-69593 displacement.
# [2] = molecular target: T2, Delta-type opioid receptor (Rattus norvegicus, UniProt P33533); experiment: Binding affinity at delta opioid receptor 1 in rat brain membrane by [3H]DADLE displacement.; type: cell membranes
# T2 sequence (P33533 whole entry): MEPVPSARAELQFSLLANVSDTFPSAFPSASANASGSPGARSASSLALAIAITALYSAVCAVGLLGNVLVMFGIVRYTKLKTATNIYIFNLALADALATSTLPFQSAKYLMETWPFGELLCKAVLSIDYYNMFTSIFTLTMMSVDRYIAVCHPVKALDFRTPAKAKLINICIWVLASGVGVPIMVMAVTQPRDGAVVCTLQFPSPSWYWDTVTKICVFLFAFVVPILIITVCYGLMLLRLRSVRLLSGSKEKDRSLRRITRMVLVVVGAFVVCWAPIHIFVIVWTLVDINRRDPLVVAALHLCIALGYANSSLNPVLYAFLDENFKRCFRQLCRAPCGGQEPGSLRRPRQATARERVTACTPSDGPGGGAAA
# [3] = molecular target: Mu-type opioid receptor (Rattus norvegicus, UniProt P33535); experiment: Binding affinity at mu opioid receptor 1 in rat brain membrane by [3H]DAMGO displacement.; type: cell membranes
# Sequence of Mu-type opioid receptor (Rattus norvegicus, UniProt P33535) (P33535 whole entry): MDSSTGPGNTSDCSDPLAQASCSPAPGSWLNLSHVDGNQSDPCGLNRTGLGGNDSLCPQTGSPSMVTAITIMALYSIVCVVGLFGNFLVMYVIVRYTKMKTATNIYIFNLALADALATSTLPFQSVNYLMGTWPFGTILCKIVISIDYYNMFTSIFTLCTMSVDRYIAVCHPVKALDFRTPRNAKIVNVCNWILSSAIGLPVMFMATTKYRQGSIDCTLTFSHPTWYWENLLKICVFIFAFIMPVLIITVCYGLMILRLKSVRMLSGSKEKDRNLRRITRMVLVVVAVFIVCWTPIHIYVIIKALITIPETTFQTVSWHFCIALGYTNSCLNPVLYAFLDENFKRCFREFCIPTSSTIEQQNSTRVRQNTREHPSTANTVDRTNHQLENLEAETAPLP
# [4] = species on record: Rattus norvegicus; experiment: Selectivity ratio (Ki value towards kappa receptor compared to that of delta receptor).
# [5] = molecular target: Opioid receptors; mu & delta (Rattus norvegicus) (UniProt P33533+P33535); experiment: Selectivity ratio (Ki value towards mu receptor compared to that of delta receptor).; type: protein assay
# Sequence of Opioid receptors; mu & delta (Rattus norvegicus) (P33533 whole entry, looked up): as the sequence (P33533 whole entry) above
# Sequence of Opioid receptors; mu & delta (Rattus norvegicus) (P33535 whole entry, looked up): as the sequence (P33535 whole entry) above
# [6] = molecular target: Mu-type opioid receptor (Cavia porcellus, UniProt P97266); experiment: The ability of compound to inhibit [35S][…] binding in guinea pig caudate stimulated by DAMGO (Opioid receptor mu 1) antagonist; type: functional
# Sequence of Mu-type opioid receptor (Cavia porcellus, UniProt P97266) (P97266 whole entry): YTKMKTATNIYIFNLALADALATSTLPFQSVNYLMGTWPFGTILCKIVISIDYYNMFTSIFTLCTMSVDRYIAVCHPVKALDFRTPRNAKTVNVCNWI
# [7] = molecular target: T1, Kappa-type opioid receptor; experiment: The ability of compound to inhibit [35S][…] binding in guinea pig caudate stimulated by U69,593 (Opioid receptor kappa 1) antagonist; type: functional
# [8] = molecular target: T2, Delta-type opioid receptor; experiment: Opioid receptor delta 1 binding affinity was determined by inhibition of binding of [3H]DADLE to rat brain membrane
# T1 sequence (P41144 whole entry): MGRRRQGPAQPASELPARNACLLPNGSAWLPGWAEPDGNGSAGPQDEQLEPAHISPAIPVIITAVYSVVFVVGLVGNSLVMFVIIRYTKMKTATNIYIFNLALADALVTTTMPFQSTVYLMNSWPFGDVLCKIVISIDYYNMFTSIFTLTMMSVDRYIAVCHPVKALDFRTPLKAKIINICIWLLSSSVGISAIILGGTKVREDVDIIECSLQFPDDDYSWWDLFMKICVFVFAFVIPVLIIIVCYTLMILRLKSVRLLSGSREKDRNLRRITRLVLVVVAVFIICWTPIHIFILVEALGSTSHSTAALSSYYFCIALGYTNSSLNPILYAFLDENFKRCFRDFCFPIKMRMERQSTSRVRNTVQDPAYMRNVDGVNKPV
Structure (SMILES),Ki [1],Ki [2],Ki [3],Selectivity [4],Selectivity [5],Ki [6],Ki [7],Ki [8]
CCCO[C@@]12Cc3c([nH]c4ccccc34)[C@]3(C)Oc4c(O)ccc5c4[C@@]31CCN(C)[C@@H]2C5,556 nM,5.3 nM,30 nM,105,5.7,,,
C=CCN1CC[C@]23c4c5ccc(O)c4O[C@H]2c2oc4ccccc4c2C[C@@]3(OCC)[C@H]1C5,68 nM,1.2 nM,22.8 nM,57,19,,,
CCO[C@@]12Cc3c([nH]c4ccccc34)[C@]3(C)Oc4c(O)ccc5c4C31CCN(CC1CC1)[C@@H]2C5,134 nM,4.4 nM,340 nM,30,77,> 10000 nM,> 10000 nM,
C=CCO[C@@]12Cc3c(n(CC=C)c4ccccc34)[C@@H]3Oc4c(O)ccc5c4[C@@]31CCN(CC=C)[C@@H]2C5,763 nM,7.3 nM,1000 nM,105,137,,,
C=CCN1CC[C@]23c4c5ccc(O)c4O[C@H]2c2c(c4ccccc4n2C)C[C@@]3(OC)[C@H]1C5,149 nM,1.97 nM,731 nM,,,,,
CCO[C@@]12Cc3c(oc4ccccc34)[C@@H]3Oc4c(O)ccc5c4[C@@]31CCN(CC1CC1)[C@@H]2C5,94 nM,1.18 nM,185 nM,80,157,> 10000 nM,> 10000 nM,
CCCO[C@@]12Cc3c(n(CCC)c4ccccc34)[C@@H]3Oc4c(O)ccc5c4[C@@]31CCN(CC1CC1)[C@@H]2C5,3.1 nM,1.28 nM,14.8 nM,2.4,12,,,
CO[C@@]12Cc3c([nH]c4ccccc34)[C@]3(C)Oc4c(O)ccc5c4[C@@]31CCN(C)[C@@H]2C5,1530 nM,3.95 nM,58 nM,387,15,,,
C=CCN1CC[C@]23c4c5ccc(O)c4O[C@H]2c2[nH]c4ccccc4c2C[C@@]3(OC)[C@H]1C5,233 nM,3.8 nM,869 nM,61,229,,,
CN1CC[C@]23c4c5ccc(O)c4O[C@H]2c2[nH]c4ccccc4c2C[C@@]3(O)[C@H]1C5 [OXYMORPHINDOLE],395 nM,,171 nM,198,86,,,2 nM
CC(C)CCO[C@@]12Cc3c([nH]c4ccccc34)[C@]3(C)Oc4c(O)ccc5c4[C@@]31CCN(C)[C@@H]2C5,1260 nM,12.8 nM,238 nM,99,19,,,
CO[C@@]12Cc3c([nH]c4ccccc34)[C@@H]3Oc4c(O)ccc5c4[C@@]31CCN(CC1CCCCC1)[C@@H]2C5,3250 nM,370 nM,14000 nM,8.8,38,,,
CCCN1CC[C@]23c4c5ccc(O)c4O[C@H]2c2c(c4ccccc4n2C)C[C@@]3(OC)[C@H]1C5,115 nM,11.5 nM,106 nM,10,9.2,,,
CCO[C@@]12Cc3c([nH]c4ccccc34)[C@]3(C)Oc4c(O)ccc5c4[C@@]31CCN(C)[C@@H]2C5,725 nM,3.9 nM,515 nM,186,132,,,
CCCO[C@@]12Cc3c([nH]c4ccccc34)[C@]3(C)Oc4c(O)ccc5c4[C@@]31CCN(CC1CC1)[C@@H]2C5,504 nM,5.3 nM,555 nM,95,105,,,
Oc1ccc2c3c1O[C@H]1c4[nH]c5ccccc5c4C[C@@]4(O)[C@@H](C2)N(CC2CC2)CC[C@]314 [NALTRINDOLE],15.8 nM,0.81 nM,,,,,,
C=CCN1CC[C@]23c4c5ccc(O)c4O[C@H]2c2[nH]c4ccccc4c2C[C@@]3(OCC)[C@H]1C5,349 nM,2.6 nM,1370 nM,134,526,> 10000 nM,> 10000 nM,
CCO[C@@]12Cc3c([nH]c4ccccc34)[C@]3(C)Oc4c(O)ccc5c4[C@@]31CCN(CC1CCC1)[C@@H]2C5,378 nM,12.6 nM,409 nM,30,32,,,
C=CCN1CC[C@]23c4c5ccc(O)c4O[C@H]2c2c(c4ccccc4n2Cc2ccccc2Cl)C[C@@]3(OCc2ccccc2Cl)[C@H]1C5,721000 nM,151 nM,1230 nM,4800,8.2,,,
